# Assay results as given in patent US8951972B2, “FGFR1 extracellular domain combination therapies for lung cancer” (Five Prime Therapeutics, Inc., priority 2010, dated 2015).
# Assays:
# [1] = system: A549 Non-Small Cell Lung Cancer (NSCLC) Xenograft; test: A549 non-small cell lung cancer (NSCLC) xenograft model, tumor volume; type: in vivo, SCID mice
# Description: Six weeks old female SCID mice were purchased from Charles River Laboratories (Wilmington, Mass.) and were acclimated for 1 week before the start of the study. […] The cells were implanted subcutaneously over the right flank of the mice at 5×10^6 cells/100 μl/mouse. One day after tumor implantation, mice were randomized according to body weight at 10 mice per group.
# The tumor volume and body weight of the mice were monitored twice a week throughout each study.
# The tumor volume of each group of mice at the end of each study was analyzed by one-way ANOVA followed by Tukey's test.
# Cisplatin was purchased from Sigma-Aldrich (St. Louis, Mo.; Cat. No. P4394), formulated in 0.9% saline, and administered i.p. at 3.5 mg/kg ([…]) once per week for six weeks. Saline was used as negative control and was administered i.p. at 100 μl per mouse twice a week for six weeks.
# On day 42, when the average tumor volume in the vehicle group reached 1300 mm^3, the mice were euthanized by isoflurane inhalation and cervical dislocation.
# FGFR1-ECD.339-Fc was formulated in 0.9% Saline for Injection USP at 3 mg/ml. […] FGFR1-ECD.339-Fc was administered intraperitoneally (i.p.) at 15 mg/kg twice per week for 5 weeks. Paclitaxel was administered i.p. at 18 mg/kg on days 8, 12, and 15.
# When the average tumor volume in vehicle control group reached ˜500 mm^3, the mice were euthanized by isoflurane inhalation and cervical dislocation.
# FGFR1-ECD.339-Fc was formulated in 0.9% Saline for Injection USP at 3 mg/ml. 5-FU was purchased from Sigma-Aldrich (St. Louis, Mo.; Cat. No. F6627) and was initially dissolved in dimethyl sulfoxide (DMSO, Sigma-Aldrich, St. Louis, Mo.; Cat. No. D8418-50) at the concentration of 50 mg/ml as a stock solution. The stock solution was further diluted in 0.9% Sodium Chloride Injection USP to 6.6 mg/ml (for 33 mg/kg dosing). FGFR1-ECD.339-Fc was administered intraperitoneally (i.p.) at 15 mg/kg twice per week for four weeks. 5-FU was administered i.p. at 33 mg/kg twice a week for three weeks.
# Mice were euthanized on day 31 by isoflurane inhalation and cervical dislocation.
# FGFR1-ECD.339-Fc was formulated in PBS at 3 mg/ml and administered intraperitoneally (i.p.) at 15 mg/kg (300 μg/100 μl/mouse) twice a week for four weeks. Docetaxel was administered i.p. at 3 mg/kg or 10 mg/kg twice per week for four weeks.
# Mice in the albumin control group were euthanized on day 32 by isoflurane inhalation and cervical dislocation when the average tumor volume in the group reached 1000 mm^3.
# [2] = system: H520 Non-Small Cell Lung Cancer (NSCLC) Xenograft; test: H520 non-small cell lung cancer (NSCLC) xenograft model, tumor volume; type: in vivo, SCID mice
# Description: Dosing for all groups began one day post tumor implantation.
# In combination groups, FGFR1-ECD.339-Fc and pemetrexed were administered on the same schedule as when given as single agents, and were administered concurrently on days 1, 4, 8, and 11.
# [3] = Body weight of the mice in the xenograft studies; type: in vivo; settings: for Body weight / tolerability: 250 mg/kg; for Body weight (weight loss): A549 study
# [4] = system: Colo205 Colon Cancer Xenograft; test: Colo205 colon cancer xenograft model, tumor volume; type: in vivo, SCID mice
# Description: Cells were resuspended in a solution of 50%/v PBS and 50%/v Matrigel at a concentration of 25 million cells/ml. Resuspended cells were kept on ice until implantation. […] On day 0, 2.5 million cells/100 μl were implanted over the right flank of the each mouse using a 27G1/2 needle. One day after tumor implantation, the mice were randomized according to the body weight.
# Leucovorin (LV) was also purchased from Sigma-Aldrich (Cat. No. F8259) and was formulated in 0.9% Sodium Chloride Injection USP at 2 mg/ml (for 10 mg/kg dosing), to 4 mg/ml (for 20 mg/kg dosing), and to 6 mg/ml (for 30 mg/kg dosing).
# In the first experiment, FGFR1-ECD.339-Fc was combined with three different concentrations of 5-FU/leucovorin. In the second experiment, FGFR1-ECD.339-Fc was combined with either bevacizumab or 5-FU/leucovorin, or both. The double line separates the groups from the two experiments.
# When the average tumor volume in a group was near 600 mm^3, the mice in that group were euthanized by isoflurane inhalation and cervical dislocation.
# The order of effectiveness of the various treatments was evaluated two ways: 1) the average tumor volume in each group on a single time point (day); and 2) time for the average tumor volume in each group to reach 500 mm^3 (see the dotted line in FIG. 11E).
# Leucovorin was also purchased from Sigma-Aldrich (Cat. No. F8259) and was formulated in 0.9% Sodium Chloride Injection USP at 2 mg/ml (for 10 mg/kg dosing).
# 5-FU and leucovorin were each administered i.p. at 10 mg/kg daily for five days. Oxaliplatin was administered i.p. at 5 mg/kg, 10 mg/kg, or 15 mg/kg in one dose on day 1.
# Mice were euthanized on day 28 by isoflurane inhalation and cervical dislocation.
# [5] = day 42, FGFR1-ECD.339-Fc 20 mg/kg i.p. 2x/wk x 6 wks, cisplatin 3.5 mg/kg i.p. 1x/wk x 6 wks
# [6] = day 24, FGFR1-ECD.339-Fc 15 mg/kg i.p. 3x/wk x 4 wks, bevacizumab 1 mg/kg i.p. 2x/wk x 4 wks, 5-Fu/LV 10 mg/kg each i.p. q.d. x 5 days
compound,measurement,setting,value
"O=c1[nH]cc(F)c(=O)[nH]1 [5-FU, 5-fluoro-1H-pyrimidine-2,4-dione, reference compound]","Fractional tumor volume (FTV), each treatment alone","[1]; day 31, FGFR1-ECD.339-Fc 15 mg/kg i.p. 2x/wk x 4 wks, 5-FU 33 mg/kg i.p. 2x/wk x 3 wks",1.04
"N.N.[Cl][Pt][Cl] [Cisplatin, (SP-4-2)-diamminedichloridoplatinum, reference compound]",Mean Tumor volume mm^3(±SD),[1]; [5],682 (±195) mm^3
same,Tumor growth inhibition (%),[1]; [5],49%
same,"Fractional tumor volume (FTV) relative to control, each treatment alone","[1]; day 42, FGFR1-ECD.339-Fc 20 mg/kg, cisplatin 3.5 mg/kg",0.5
"CC(=O)O[C@H]1C(=O)[C@@]2(C)[C@H]([C@H](OC(=O)c3ccccc3)[C@]3(O)C[C@H](OC(=O)[C@H](O)[C@@H](NC(=O)c4ccccc4)c4ccccc4)C(C)=C1C3(C)C)[C@]1(OC(C)=O)CO[C@@H]1C[C@@H]2O [Paclitaxel, (2α,4α,5β,7β,10β,13α)-4,10-bis(acetyloxy)-13-{[(2R,3S)-3-(benzoylamino)-2-hydroxy-3-phenylpropanoyl]oxy}-1,7-dihydroxy-9-oxo-5,20-epoxytax-11-en-2-yl benzoate, reference compound]","Fractional tumor volume (FTV), each treatment alone","[1]; day 31, FGFR1-ECD.339-Fc 15 mg/kg i.p. 2x/wk x 5 wks, paclitaxel 18 mg/kg i.p. days 8, 12, 15",0.57
same,"Fractional tumor volume (FTV), each treatment alone","[1]; day 38, FGFR1-ECD.339-Fc 15 mg/kg i.p. 2x/wk x 5 wks, paclitaxel 18 mg/kg i.p. days 8, 12, 15",0.50
"Nc1nc2[nH]cc(CCc3ccc(C(=O)N[C@@H](CCC(=O)O)C(=O)O)cc3)c2c(=O)[nH]1 [Pemetrexed, (S)-2-[4-[2-(4-amino-2-oxo-3,5,7-triazabicyclo[4.3.0]nona-3,8,10-trien-9-yl)ethyl]benzoyl]aminopentanedioic acid, reference compound]",Tumor inhibition over the course of the study (mean tumor volume),"[2]; FIG. 4A, highest dose of pemetrexed (250 mg/kg), alone or with FGFR1-ECD.339-Fc 15 mg/kg",did not appear to inhibit tumor growth
same,Tumor inhibition over the course of the study (mean tumor volume),"[2]; FIGS. 2A, 3A, 4A, FGFR1-ECD.339-Fc 15 mg/kg, pemetrexed alone at the low or medium dose (62.5 or 125 mg/kg), combination dosed concurrently",resulted in tumor inhibition
same,Body weight / tolerability,"[3]; H520 study, high dose of pemetrexed, 250 mg/kg i.p. QD x 5, FIG. 4B",approaching the maximum tolerated dose
same,Body weight / tolerability,"[3]; mouse, in vivo, ip",initially lost significant body weight
"CC[C@]1(O)C[C@H]2CN(CCc3c([nH]c4ccccc34)[C@@](C(=O)OC)(c3cc4c(cc3OC)N(C=O)[C@H]3[C@@](O)(C(=O)OC)[C@H](OC(C)=O)[C@]5(CC)C=CCN6CC[C@]43[C@@H]65)C2)C1 [Vincristine, methyl (1R,9R,10S,11R,12R,19R)-11-(acetyloxy)-12-ethyl-4-[(13S,15S,17S)-17-ethyl-17-hydroxy-13-(methoxycarbonyl)-1,11-diazatetracyclo[13.3.1.0^4,12.0^5,10]nonadeca-4(12),5,7,9-tetraen-13-yl]-8-formyl-10-hydroxy-5-methoxy-8,16-diazapentacyclo[10.6.1.0^1,9.0^2,7.0^16,19]nonadeca-2,4,6,13-tetraene-10-carboxylate, reference compound]",Body weight (weight loss),"[3]; higher dose of vincristine (1.5 mg/kg i.p. days 27, 34, 41), FIG. 9C",lost weight
same,Body weight (weight loss),"[3]; lower dose of vincristine (1 mg/kg i.p. days 8, 15, 22), data not shown",did not lose weight
same,"Fractional tumor volume (FTV), each treatment alone","[1]; day 39, FGFR1-ECD.339-Fc 15 mg/kg i.p. 2x/wk (start day 1), vincristine 1 mg/kg i.p. days 8, 15, 22",0.53
same,"Fractional tumor volume (FTV), each treatment alone","[1]; day 46, FGFR1-ECD.339-Fc 15 mg/kg i.p. 2x/wk (start day 1), vincristine 1 mg/kg i.p. days 8, 15, 22",0.55
same,"Fractional tumor volume (FTV), each treatment alone","[1]; day 70, FGFR1-ECD.339-Fc 20 mg/kg i.p. 2x/wk (start day 19), vincristine 1.5 mg/kg i.p. days 27, 34, 41",0.41
Bevacizumab: recombinant humanized anti-VEGF monoclonal antibody [reference compound],"Fractional tumor volume (FTV), each treatment alone","[4]; Day 24, FGFR1-ECD.339-Fc 15 mg/kg i.p. 3x/wk x 4 wks, bevacizumab 1 mg/kg i.p. 2x/wk x 4 wks, 5-Fu/LV 10 mg/kg each q.d. x 5 days",0.58
same,Order of antitumor effect of the treatment groups,"[4]; by average tumor volume on a single day and by time for average tumor volume to reach 500 mm^3 (FIG. 11E), value gives the next-ranked group",>FGFR1-ECD.339-Fc
same,Mean Tumor volume mm^3(±SD),[4]; [6],405 (±56) mm^3
same,Tumor growth inhibition (%),[4]; [6],41%
